Laboratory results as given in PubChem BioAssay AID1963856 (Molecular Pharmacology Branch, DTP, NCI, 2024).

Tested on: LG0567-F671-PDC KRAS tumor spheroid viability
Experiment: Anticancer human tumor LG0567-F671-PDC patient-derived lung adenocarcinoma cell line growth inhibition [KRAS2]
Conditions: spheroids with HUVEC and MSC; for viability, T/C: stronger effect = lower value; active means viability on the fitted dose curve at most 10% of control; inactive means the rest
In short: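 KRAS-mutant tumor cells were grown as spheroids with HUVEC endothelial cells and human MSCs as stroma. Targeted agents were tested alone and with KRAS pathway inhibitors. Doses started at or near clinical Cmax, or 10 microM, descending half-log.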

[1] = curve of first compound, second compound 0.1 µM
[2] = curve of first compound, second compound 0.316 µM
[3] = curve of first compound, second compound 1 µM
[4] = curve of first compound, second compound 3.16 µM
[5] = curve of first compound, second compound 10 µM
[6] = second compound 0.1 µM, first compound 0.01 µM
[7] = second compound 0.1 µM, first compound 0.0316 µM
[8] = second compound 0.1 µM, first compound 0.1 µM
[9] = second compound 0.316 µM, first compound 0.01 µM
[10] = second compound 0.316 µM, first compound 0.0316 µM
[11] = second compound 0.316 µM, first compound 0.1 µM
[12] = second compound 1 µM, first compound 0.01 µM
[13] = second compound 1 µM, first compound 0.0316 µM
[14] = second compound 1 µM, first compound 0.1 µM
[15] = second compound 3.16 µM, first compound 0.01 µM
[16] = second compound 3.16 µM, first compound 0.0316 µM
[17] = second compound 3.16 µM, first compound 0.1 µM
[18] = second compound 10 µM, first compound 0.01 µM
[19] = second compound 10 µM, first compound 0.0316 µM
[20] = second compound 10 µM, first compound 0.1 µM
[21] = second compound 0.1 µM, first compound 0.316 µM
[22] = second compound 0.1 µM, first compound 1 µM
[23] = second compound 0.1 µM, first compound 3.16 µM
[24] = second compound 0.316 µM, first compound 0.316 µM
[25] = second compound 0.316 µM, first compound 1 µM
[26] = second compound 0.316 µM, first compound 3.16 µM
[27] = second compound 1 µM, first compound 0.316 µM
[28] = second compound 1 µM, first compound 1 µM
[29] = second compound 1 µM, first compound 3.16 µM
[30] = second compound 3.16 µM, first compound 0.316 µM
[31] = second compound 3.16 µM, first compound 1 µM
[32] = second compound 3.16 µM, first compound 3.16 µM
[33] = second compound 10 µM, first compound 0.316 µM
[34] = second compound 10 µM, first compound 1 µM
[35] = second compound 10 µM, first compound 3.16 µM
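Further: drug exposure lasted seven days after spheroids formed for three days.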
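Wherever viability, T/C is given: 100% = DMSO vehicle control viability.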

CC(C)n1nc(-c2ccc3oc(N)nc3c2)c2c(N)ncnc21 + CNCc1ccccc1-c1csc(C(C)Nc2nc(C)nc3cc(OC)c(OC)cc23)c1
active: viability, T/C (second compound 3.16 µM, first compound 0.000316 µM) 0.52% | viability, T/C (second compound 3.16 µM, first compound 0.001 µM) 1.53% | viability, T/C (second compound 3.16 µM, first compound 0.00316 µM) 2.23% | viability, T/C [15] 0.27% | viability, T/C [16] 10.3% | viability, T/C [17] 6% | viability, T/C (second compound 10 µM, first compound 0.000316 µM) 1.29% | viability, T/C (second compound 10 µM, first compound 0.001 µM) 0.51% | viability, T/C (second compound 10 µM, first compound 0.00316 µM) 0.14% | viability, T/C [18] 1.07% | viability, T/C [19] 10.9% | viability, T/C [20] 0.33%
10.7 nM: IC50 [2]
< 0.316 nM: IC50 [4] | IC50 [5]
58.7 nM: IC50 [1]
5.7 nM: IC50 [3]
inactive: viability, T/C (second compound 0.1 µM, first compound 0.000316 µM) 72.7% | viability, T/C (second compound 0.1 µM, first compound 0.001 µM) 76.2% | viability, T/C (second compound 0.1 µM, first compound 0.00316 µM) 65.5% | viability, T/C [6] 58.6% | viability, T/C [7] 53.8% | viability, T/C [8] 47.3% | viability, T/C (second compound 0.316 µM, first compound 0.000316 µM) 70.3% | viability, T/C (second compound 0.316 µM, first compound 0.001 µM) 65.5% | viability, T/C (second compound 0.316 µM, first compound 0.00316 µM) 59% | viability, T/C [9] 49% | viability, T/C [10] 42.6% | viability, T/C [11] 37.4% | viability, T/C (second compound 1 µM, first compound 0.000316 µM) 70.8% | viability, T/C (second compound 1 µM, first compound 0.001 µM) 73.6% | viability, T/C (second compound 1 µM, first compound 0.00316 µM) 52.5% | viability, T/C [12] 44.5% | viability, T/C [13] 32.1% | viability, T/C [14] 23.2%

CC1COCCN1c1cc(-c2ccnn2C)c2ccnc(-c3ccn[nH]3)c2n1 (stereo not given) + C=CC(=O)N1CCN(c2nc(=O)n(-c3c(C)ccnc3C(C)C)c3nc(-c4c(O)cccc4F)c(F)cc23)C(C)C1
inactive: viability, T/C [6] 23.9% | viability, T/C [7] 18.8% | viability, T/C [8] 16% | viability, T/C [21] 14.2% | viability, T/C [22] 11.2% | viability, T/C [23] 10.8% | viability, T/C [9] 21.8% | viability, T/C [10] 18.6% | viability, T/C [11] 14.2% | viability, T/C [24] 11% | viability, T/C [25] 9.77% | viability, T/C [12] 21.3% | viability, T/C [13] 19.3% | viability, T/C [14] 14.3% | viability, T/C [27] 11.3% | viability, T/C [28] 9.8% | viability, T/C [29] 12.5% | viability, T/C [15] 15.7% | viability, T/C [16] 14.9% | viability, T/C [17] 12.8% | viability, T/C [30] 11.3% | viability, T/C [31] 9.54% | viability, T/C [18] 19.8% | viability, T/C [19] 17.4% | viability, T/C [20] 15.5% | viability, T/C [33] 14.9% | viability, T/C [34] 12.2% | viability, T/C [35] 12.8%
active: viability, T/C [26] 10.6% | viability, T/C [32] 10.3%
< 10 nM: IC50 [1] | IC50 [2] | IC50 [3] | IC50 [4] | IC50 [5]

COc1cc2nccc(Oc3ccc(NC(=O)C4(C(=O)Nc5ccc(F)cc5)CC4)cc3)c2cc1OC
> 10000 nM: IC50 (curve of compound)
inactive: viability, T/C (compound 0.0316 µM) 92% [middle of 5 runs] | viability, T/C (compound 0.1 µM) 78.3% [middle of 5 runs] | viability, T/C (compound 0.316 µM) 75.1% [middle of 5 runs] | viability, T/C (compound 1 µM) 67% [middle of 5 runs]

COc1cc(Nc2ncc3c(n2)-c2ccc(Cl)cc2C(c2c(F)cccc2OC)=NC3)ccc1C(=O)O + COc1cc2nc(C)nc(NC(C)c3cc(N)cc(C(F)(F)F)c3)c2cc1OC1CCOC1
inactive: viability, T/C [7] 64.3% | viability, T/C [8] 59.9% | viability, T/C [21] 60.9% | viability, T/C [22] 55.1% | viability, T/C [23] 48.9% | viability, T/C (second compound 0.1 µM, first compound 10 µM) 36% | viability, T/C [10] 46.6% | viability, T/C [11] 50.2% | viability, T/C [24] 43.3% | viability, T/C [25] 47.1% | viability, T/C [26] 36% | viability, T/C (second compound 0.316 µM, first compound 10 µM) 28.2% | viability, T/C [13] 48.3% | viability, T/C [14] 53.7% | viability, T/C [27] 49.5% | viability, T/C [28] 44.5% | viability, T/C [29] 37.9% | viability, T/C (second compound 1 µM, first compound 10 µM) 28.8% | viability, T/C [16] 40% | viability, T/C [17] 44.4% | viability, T/C [30] 46.1% | viability, T/C [31] 36.9% | viability, T/C [32] 32.7% | viability, T/C (second compound 3.16 µM, first compound 10 µM) 23.6% | viability, T/C [19] 40.2% | viability, T/C [20] 37.8% | viability, T/C [33] 37.7% | viability, T/C [34] 33.1% | viability, T/C [35] 27.6% | viability, T/C (second compound 10 µM, first compound 10 µM) 18.9%
169 nM: IC50 [3]
< 31.6 nM: IC50 [2] | IC50 [4] | IC50 [5]
2450 nM: IC50 [1]
